Patent US7718768B2, “Biologically active peptide [sequence]” (CMS Peptides Patent Holding Company Limited, priority 2001, dated 2010)
Marks after values point to notes of the source that are not given here. No end group written: not given here.

Assays:
Assay type in all cases: in vivo, BALB/c mice
[1] = immunity organ weight test (thymus gland index, spleen index); settings: X ± SD
How it was run: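 Substances in saline given i.p. once daily for 15 days; on day 16 liver, spleen and thymus excised, blotted and weighed. Thymus and spleen indices = organ weight/body weight ×100%; phagocytosis index α from body weight and liver-plus-spleen weight.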

anti-SRBC antibody = experiment: Sheep Red Blood Cell (SRBC) hemolysis test, anti-SRBC antibody formation; settings: SRBC on day 12, IFN-γ and IL-2 groups 3×10^5 IU/kg/day, X ± SD
How it was run: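 Mice got test substances plus 0.2 ml SRBC i.p. on day 12; serum taken day 16, diluted 500-fold, mixed with 2% SRBC and guinea pig complement, 10 min at 37 °C. Lysis read as OD540nm after Drabkin's, indexed against a reference SRBC OD540nm.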

NK cell = NK cell cytotoxicity activity test (YAC-1 target cells, MTT) on spleen cells of treated mice; settings: IFN-γ and IL-2 groups 3×10^5 IU/kg/day, X ± SD
Experimental: The above substances were all dissolved in 0.5 ml saline and injected intraperitoneal (i.p.) for 15 continuous days, once per day.
(§1) Ten mice per group. The day after the last test substance administration, the mice were sacrificed by cervical dislocation. The spleen was isolated aseptically and manually dispersed in cold D-Hank's solution using an injection needle. The dispersed cell suspension was further sieved through a 100 gauge 150 μm diameter stainless steel sieve. After centrifugation at 200 g for 10 minutes, the supernatant was discarded. The cell pellet was re-suspended in 10 volume of Tris-NH4Cl buffer and then kept standing still for 10 minutes at room temperature. The suspended cells were collected by centrifugation at 150 g for 10 minutes. The cells were washed 2-4 times with cold D-Hank's solution by re-suspending and collecting by centrifugation with condition as described above. The washed cells were then diluted to the desired cell densities by RPMI-1640 culture medium, containing 10% fetal bovine serum.
Mice spleen cells were prepared to 4×10^6/ml as described in section 1.1 above. Target cells YAC-1 were brought to log phase and adjusted to 1×10^5/ml. Using a 96 wells cell culture plate, 100 μl mouse spleen cells and 100 μl culture medium were added to the control well containing only the spleen cells; 100 μl target cells and 100 μl culture medium were added to the control well containing only target cells; 100 μl mouse spleen cells and 100 μl target cells were added to the NK activity assay well. Three parallel sets of the above were prepared per mouse.
Samples were centrifuged at 150 g for 10 minutes to collect the cells. The supernatant was discarded and 50 μl/well MTT of 1 mg/ml was added. The reaction mixture was then shaken for 2 minutes, and incubated at 37° C., 5% CO2 for 4 hours. The supernatant was discarded after centrifugation at 150 g for 10 minutes. 120 μl 40 mM HCl-2-propanol was added and shaken for 3 minutes. An ELISA reader was used to obtain OD570nm of each well referenced at 630 nm.

T lymphocyte = T lymphocyte transformation in mice with ascitic fluid type liver cancer H22
Experimental: as §1, with “Healthy BALB/c mice were randomized into peptide group, rmIFN-γ group, rhIL-2 group, and saline group, 15” for “Ten”, “group, and prepared into H22 carrying mice model as described in section Method 3. After implantation of” for “group. The day after”, “cancer cells, the” for “last”, “substances were administered for 15 days,” for “substance administration,”, “killed” for “sacrificed”, “100-gauge” for “100 gauge”
Spleen cells of density 1×10^6/ml were placed onto a 96 wells cell culture plate, 100 μl/well, three parallel wells each of the assay sample and control sample per mouse. To the assay wells, 100 μl/well ConA of 100 μg/ml in RPMI-1640 was added, and 100 μl/well plain RPMI-1640 was used for the controls. The cells were incubated for 66 hrs at 37° C., 5% CO2. The cells were then pelleted by centrifugation at 150 g for 10 minutes.
50 μl/well MTT of 1 mg/ml in RPMI-1640 was added to the cell pellet and the cells re-suspended by shaking for 2 minutes. The incubation was continued for 4 hours. The supernatant was discarded after centrifugation at 150 g for 10 minutes. 120 μl 40 mM HCl-2-propanol was added to the cell pellet and shaken for 3 minutes. Use an ELISA reader to obtain OD570nm of each well referenced at 630 nm.
Each mouse formed three assay wells and three control wells. The Stimulation Index (SI) of each mouse was obtained by first deriving the average OD of the three parallel wells, then dividing the value of the assay wells by the control wells.

[2] = peptide 500 μg/kg/day i.p. 15 days
[3] = peptide 0.5 μg/kg/day i.p. 15 days
[4] = peptide 5 μg/kg/day i.p. 15 days
[5] = peptide 50 μg/kg/day i.p. 15 days
[6] = peptide 5 μg/kg/day i.p. 15 days, IFN-γ and IL-2 groups 3×10^5 IU/kg/day
[7] = peptide 50 μg/kg/day i.p. 15 days, IFN-γ and IL-2 groups 3×10^5 IU/kg/day
[8] = peptide 500 μg/kg/day i.p. 15 days, IFN-γ and IL-2 groups 3×10^5 IU/kg/day
[9] = peptide 0.5 μg/kg/day i.p. 15 days, IFN-γ and IL-2 groups 3×10^5 IU/kg/day

Row | Substance | weight of spleen (spleen index) [1, 2] | anti-SRBC antibody formation (sample serum index) (anti-SRBC antibody; [3]) | anti-SRBC antibody formation (sample serum index) (anti-SRBC antibody; [4]) | anti-SRBC antibody formation (sample serum index) (anti-SRBC antibody; [5]) | anti-SRBC antibody formation (sample serum index) (anti-SRBC antibody; [2]) | NK cell cytotoxic activity (NK cell activity index) (NK cell; [5]) | weight of thymus gland (thymus gland index) [1, 6] | weight of thymus gland (thymus gland index) [1, 7] | weight of thymus gland (thymus gland index) [1, 8] | NK cell cytotoxic activity (NK cell activity index) (NK cell; [2]) | weight of thymus gland (thymus gland index) [1, 9] | weight of spleen (spleen index) [1, 7] | NK cell cytotoxic activity (NK cell activity index) (NK cell; [3]) | NK cell cytotoxic activity (NK cell activity index) (NK cell; [4]) | weight of spleen (spleen index) [1, 4] | weight of spleen (spleen index) [1, 9] | Stimulation index (T lymphocyte; 0.5 μg/kg i.p. once per day) | Stimulation index (T lymphocyte; 5 μg/kg i.p. once per day) | Stimulation index (T lymphocyte; 500 μg/kg i.p. once per day)
1 | FNFVPP [CMS003] | 0.40 ± 0.04 % | 2 ± 1* Unit | 91 ± 24*^@ Unit | 52 ± 11* Unit | 96 ± 18*^@ Unit | 85 ± 6 % |  |  |  |  |  |  |  |  |  |  |  |  | 
2 | IGMESAGIHETTY [CMS016] |  |  | 93 ± 32*^@ Unit |  | 143 ± 38*^@^ Unit |  | 0.22 ± 0.06 % | 0.20 ± 0.03*^@^ % | 0.18 ± 0.05 % | 91 ± 7*^@^ % |  |  |  |  |  |  |  |  | 
3 | KAVGHLDDLPGAL [CMS008] |  |  | 97 ± 26*^@ Unit |  | 82 ± 15*^@ Unit |  |  | 0.20 ± 0.04*^@^ % | 0.21 ± 0.03*^@^ % |  | 0.22 ± 0.07*^ % | 0.39 ± 0.08 % | 46 ± 12 % | 92 ± 4*^@^ % |  |  |  |  | 
4 | LRVAPEEHPTL [CMS009] | 0.41 ± 0.03 % | 2 ± 1* Unit | 79 ± 18*^@ Unit | 13 ± 5* Unit | 113 ± 22*^@^ Unit |  |  |  |  |  |  |  |  | 92 ± 6*^@^ % |  |  |  |  | 
5 | PSIVGRPRHQGVM [CMS015] | 0.36 ± 0.07 % | 13 ± 4* Unit | 94 ± 37*^@ Unit | 54 ± 9*^@ Unit | 136 ± 22*^@^ Unit | 78 ± 8 % | 0.20 ± 0.08 % |  |  |  |  |  |  |  | 0.38 ± 0.15 % |  |  |  | 
6 | PTTKTYFPHF [CMS001] | 0.43 ± 0.07 % |  | 110 ± 24*^@ Unit |  |  | 85 ± 10 % | 0.22 ± 0.05 % |  |  |  |  |  |  |  |  | 0.40 ± 0.05 % |  |  | 
7 | Phe Glu Glu Glu (FEEE; listed as Sus scrofa) [CMS032] |  |  | 157 ± 37*^@^ Unit | 131 ± 24*^@^ Unit |  |  | 0.29 ± 0.04*^@^ % | 0.27 ± 0.03*^@^ % | 0.25 ± 0.03*^@^ % | 87 ± 5 % | 0.21 ± 0.06 % |  |  |  |  |  |  |  | 
8 | Phe Val Asn Asp (FVND; listed as Sus scrofa) [CMS035] |  |  | 176 ± 39*^@^ Unit | 97 ± 10*^@^ Unit | 88 ± 16*^@ Unit | 72 ± 9 % | 0.21 ± 0.04 % |  |  | 90 ± 10 % |  |  | 76 ± 10 % |  |  |  | 1.40 ± 0.13*^$ | 1.46 ± 0.16*^$ | 
9 | Pro Glu Asn Phe (PENF; listed as Sus scrofa) [CMS034] |  | 20 ± 2* Unit | 172 ± 37*^@^ Unit | 136 ± 11*^@^ Unit |  |  | 0.27 ± 0.06*^@^ % | 0.19 ± 0.04*^ % | 0.20 ± 0.05*^ % |  |  |  |  | 90 ± 5 % |  |  | 1.37 ± 0.10*^$ |  | 
10 | RVAPEEHPTL [CMS011] | 0.41 ± 0.04 % | 5 ± 3* Unit | 115 ± 27*^@^ Unit | 67 ± 9*^@ Unit | 188 ± 16*^@^ Unit |  | 0.22 ± 0.04 % |  |  |  |  |  | 79 ± 3 % | 76 ± 10 % |  |  |  |  | 
11 | Tyr Ser Leu (YSL; listed as Sus scrofa) [CMS024] | 0.34 ± 0.05 % | 98 ± 6*^@^ Unit | 171 ± 39*^@^ Unit |  | 75 ± 29*^@ Unit |  | 0.23 ± 0.06*^ % | 0.27 ± 0.02*^@^ % |  | 89 ± 8 % |  |  |  | 78 ± 3 % |  |  | 1.46 ± 0.19*^$ | 1.45 ± 0.21*^$ | 
12 | VAPEEHPTLLTEAPLNPK [CMS010] |  | 10 ± 3* Unit |  |  | 112 ± 30*^@^ Unit |  | 0.27 ± 0.05*^@^ % |  | 0.19 ± 0.04 % | 91 ± 4*^@^ % | 0.21 ± 0.03 % | 0.38 ± 0.05 % |  | 82 ± 9 % |  |  |  |  | 1.45 ± 0.21*^$
13 | VGMGQKDSY [CMS019] | 0.63 ± 0.08 % | 12 ± 3* Unit | 118 ± 20*^@^ Unit |  | 91 ± 26*^@ Unit |  | 0.24 ± 0.02*^@^ % | 0.20 ± 0.03*^@^ % | 0.19 ± 0.02 % |  |  |  |  |  |  |  | 1.50 ± 0.19*^$ |  | 
